Data on 17 compounds can be found in patent US10947252B2, “Inhibitors of KEAP1-Nrf2 protein-protein interaction” (Janssen Pharmaceutica NV, priority 2018, dated 2021).

As a reminder, the Kd is a measure of binding affinity in units of concentration. Broadly, the EC50 is the concentration needed to bring the measured effect to its halfway point. Read a high EC50 as a less potent agent.

In test [1] the target is Kelch domain of human KEAP1 (321-624 aa) (Homo sapiens (Human), UniProt Q14145). Briefly: KEAP1 KELCH ThermoFluor binding assay.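 Also: Ligand-induced melting temperature shift of E. coli-expressed KEAP1 Kelch protein, Kd estimated from concentration-response curves of ΔTm.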 As to conditions: KEAP Kelch […], 1,8-ANS, pH 7.0, average of results obtained, read-out: Tf Kd. Background: DSF heats the sample and reads unfolding from a dye or from intrinsic fluorescence.
Kelch domain of human KEAP1 (321-624 aa), sequence (Q14145 321-624): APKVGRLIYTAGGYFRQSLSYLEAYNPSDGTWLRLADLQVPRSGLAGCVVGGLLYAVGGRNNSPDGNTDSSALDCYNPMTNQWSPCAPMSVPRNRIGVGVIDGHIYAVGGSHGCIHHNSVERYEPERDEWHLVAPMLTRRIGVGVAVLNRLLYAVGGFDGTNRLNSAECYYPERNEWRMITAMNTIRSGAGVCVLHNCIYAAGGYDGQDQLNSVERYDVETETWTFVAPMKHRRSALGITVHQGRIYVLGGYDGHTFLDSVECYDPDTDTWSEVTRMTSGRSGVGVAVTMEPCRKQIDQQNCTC
The test system of test [2] is Glo-Response ARE-luc2P HEK293 cell line. Briefly: ARE luciferase reporter cell-based assay.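 Also: luciferase signal tracks Nrf2 activation of the ARE once compounds disrupt KEAP1-Nrf2 binding, read with One-Glo reagent, DMSO serving as low control.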 To be noted: Homo sapiens, HEK293, 24 h, average of results obtained. On the technique in general: A reporter such as luciferase makes a cellular process visible.

Structures can show the parent of a compound that is named as a salt. Bounds are passed on as bounds.

For the compound `Cc1cnc2c(c1)S(=O)(=O)N(Cc1cc([C@H](c3ccc4c(nnn4C4CC4)c3C)C(C)(C)C(=O)O)cnc1C)CC1(CCOCC1)O2` (single isomer, unassigned) [Example 228, (*S)-3-(1-Cyclopropyl-4-methyl-1H-benzo[d][1,2,3]triazol-5-yl)-2,2-dimethyl-3-(6-methyl-5-((8′-methyl-1′,1′-dioxido-2,3,5,6-tetrahydrospiro[pyran-4,4′-pyrido[2,3-b][1,4,5]oxathiazepin]-2′(3′H)-yl)methyl)pyridin-3-yl)propanoic Acid], the Kd in test [1] is below 1 nM. The same compound yielded an EC50 in test [2] of 10 nM.
For `Cc1ccc(C(CC(=O)O)c2cc(OC(F)F)c3c(c2)nnn3C)cc1CN1C[C@H]2CCCN2c2ncccc2S1(=O)=O` (mixture of isomers) [Example 246, 3-(7-(Difluoromethoxy)-1-methyl-1H-benzo[d][1,2,3]triazol-5-yl)-3-(3-(((R)-5,5-dioxido-7a,8,9,10-tetrahydropyrido[2,3-f]pyrrolo[2,1-d][1,2,5]thiadiazepin-6(7H)-yl)methyl)-4-methylphenyl)propanoic Acid and its Trifluoroacetic Acid Salt], in that order: below 1 nM and 87.3 nM.
Taken in the same sequence, the figures for `CCc1nnc2c(C)c(C(CC(=O)O)c3ccc(C)c(CN4C[C@H]5CCCN5c5ncccc5S4(=O)=O)c3)ccn12` (stereo partly drawn) [Example 281, 3-(3-(((R)-5,5-Dioxido-7a,8,9,10-tetrahydropyrido[2,3-f]pyrrolo[2,1-d][1,2,5]thiadiazepin-6(7H)-yl)methyl)-4-methylphenyl)-3-(3-ethyl-8-methyl-[1,2,4]triazolo[4,3-a]pyridin-7-yl)propanoic Acid] were below 1 nM and 480 nM.
In the case of `Cc1ccc([C@H](CC(=O)O)c2ccc3c(nnn3CC3CC3)c2C)cc1CN1C[C@@]2(C)CCCN2c2ncccc2S1(=O)=O` (single isomer, unassigned) [Example 82, (*S)-3-(1-(Cyclopropylmethyl)-4-methyl-1H-benzo[d][1,2,3]triazol-5-yl)-3-(4-methyl-3-(((*R)-7a-methyl-5,5-dioxido-7a,8,9,10-tetrahydropyrido[2,3-f]pyrrolo[2,1-d][1,2,5]thiadiazepin-6(7H)-yl)methyl)phenyl)propanoic Acid], the Kd in test [1] was 80 nM. The same compound came in with an EC50 in test [2] of 3350 nM.
For `Cc1ncc([C@@H](CC(=O)O)c2ccn3c(C(F)(F)F)nnc3c2C)cc1CN1CC2(CCOCC2)Oc2ncccc2S1(=O)=O` (single isomer, unassigned) [Example 562, (*S)-3-(5-((1′,1′-Dioxido-2,3,5,6-tetrahydrospiro[pyran-4,4′-pyrido[2,3-b][1,4,5]oxathiazepin]-2′(3′H)-yl)methyl)-6-methylpyridin-3-yl)-3-(8-methyl-3-(trifluoromethyl)-[1,2,4]triazolo[4,3-a]pyridin-7-yl)propanoic Acid], in that order: 14.8 nM and 2490 nM.
As for `CCn1nnc2c(C)c(C(c3cnc(C)c(CN4CC5(CCOCC5)Oc5ncc(C)cc5S4(=O)=O)c3)C(C)(C)C(=O)O)ccc21` (racemic) [Example 61, (R/S)-3-(1-Ethyl-4-methyl-1H-benzo[d][1,2,3]triazol-5-yl)-2,2-dimethyl-3-(6-methyl-5-((8′-methyl-1′,1′-dioxido-2,3,5,6-tetrahydrospiro[pyran-4,4′-pyrido[2,3-b][1,4,5]oxathiazepin]-2′(3′H)-yl)methyl)pyridin-3-yl)propanoic Acid], the Kd in test [1] is below 1 nM. The same compound displayed an EC50 in test [2] of 41.7 nM.
For `Cc1cnc2c(c1)S(=O)(=O)N(Cc1cc(C(c3ccn4c(C(F)(F)F)nnc4c3C)C(C)(C)C(=O)O)cnc1C)CC1(CCOCC1)O2` (racemic) [Example 584, (R/S)-2,2-Dimethyl-3-(8-methyl-3-(trifluoromethyl)-[1,2,4]triazolo[4,3-a]pyridin-7-yl)-3-(6-methyl-5-((8′-methyl-1′,1′-dioxido-2,3,5,6-tetrahydrospiro[pyran-4,4′-pyrido[2,3-b][1,4,5]oxathiazepin]-2′(3′H)-yl)methyl)pyridin-3-yl)propanoic Acid], in that order: below 1 nM and 478 nM.
Taken in the same sequence, the figures for `COc1ccc2c(n1)OC1(CCOCC1)CN(Cc1cc([C@H](c3ccn4c(C(F)F)nnc4c3C)C(C)(C)C(=O)O)ccc1C)S2(=O)=O` (single isomer, unassigned) [Example 583, (*R)-3-(3-(Difluoromethyl)-8-methyl-[1,2,4]triazolo[4,3-a]pyridin-7-yl)-3-(3-((7′-methoxy-1′,1′-dioxido-2,3,5,6-tetrahydrospiro[pyran-4,4′-pyrido[2,3-b][1,4,5]oxathiazepin]-2′(3′H)-yl)methyl)-4-methylphenyl)-2,2-dimethylpropanoic Acid] were 1610 nM and 766 nM.
For `Cc1ccc([C@H](c2ccn3c(C4CC4)nnc3c2C)C(C)(C)C(=O)O)cc1CN1CC2(CCOCC2)Oc2ncccc2S1(=O)=O` (single isomer, unassigned) [Example 42, (*R)-3-(3-Cyclopropyl-8-methyl-[1,2,4]triazolo[4,3-a]pyridin-7-yl)-3-(3-((1′,1′-dioxido-2,3,5,6-tetrahydrospiro[pyran-4,4′-pyrido[2,3-b][1,4,5]oxathiazepin]-2′(3′H)-yl)methyl)-4-methylphenyl)-2,2-dimethylpropanoic Acid], in that order: 7540 nM and 3460 nM.
For `Cc1ccc([C@@H](CC(=O)O)c2ccn3c(C(F)(F)F)nnc3c2C)nc1CN1C[C@H]2CCCCN2c2ncc(Cl)cc2S1(=O)=O` (single isomer, unassigned) [Example 520, (*S)-3-(6-(((*R)-3-Chloro-5,5-dioxido-7,7a,8,9,10,11-hexahydro-6H-dipyrido[2,1-d:2′,3′-f][1,2,5]thiadiazepin-6-yl)methyl)-5-methylpyridin-2-yl)-3-(8-methyl-3-(trifluoromethyl)-[1,2,4]triazolo[4,3-a]pyridin-7-yl)propanoic Acid], the Kd in test [1] is below 1 nM. The compound also returned an EC50 in test [2] of 15.6 nM.
As for `Cc1ccc([C@@H](CC(=O)O)c2ccc3c(nnn3CC3CC3)c2C)cc1CN1CC2(COC2)Oc2ncccc2S1(=O)=O` (single isomer, unassigned) [Example 70, (*R)-3-(1-(Cyclopropylmethyl)-4-methyl-1H-benzo[d][1,2,3]triazol-5-yl)-3-(3-((1′,1′-dioxidospiro[oxetane-3,4′-pyrido[2,3-b][1,4,5]oxathiazepin-2′(3′H)-yl)methyl)-4-methylphenyl)propanoic Acid], the Kd in test [1] is 1.9 nM. Further, a half-maximal response in test [2] (EC50) required 180 nM.
With `CCn1nnc2c(C)c([C@H](c3cnc(C)c(CN4CC5(CCOCC5)Oc5ncc(C)cc5S4(=O)=O)c3)C(C)(C)C(=O)O)ccc21` (single isomer, unassigned) [Example 63, (*R)-3-(1-Ethyl-4-methyl-1H-benzo[d][1,2,3]triazol-5-yl)-2,2-dimethyl-3-(6-methyl-5-((8′-methyl-1′,1′-dioxido-2,3,5,6-tetrahydrospiro[pyran-4,4′-pyrido[2,3-b][1,4,5]oxathiazepin]-2′(3′H)-yl)methyl)pyridin-3-yl)propanoic Acid], the Kd in test [1] stood at 14500 nM. The compound further had an EC50 in test [2] of 3280 nM.
For `Cc1ccc([C@H](CC(=O)O)c2ccc3c(nnn3C3CC3)c2C)cc1CN1C[C@H]2CCCCN2c2ncccc2S1(=O)=O` (single isomer, unassigned) [Example 212, (*S)-3-(1-Cyclopropyl-4-methyl-1H-benzo[d][1,2,3]triazol-5-yl)-3-(3-(((*R)-5,5-dioxido-7,7a,8,9,10,11-hexahydro-6H-dipyrido[2,1-d:2′,3′-f][1,2,5]thiadiazepin-6-yl)methyl)-4-methylphenyl)propanoic Acid], in that order: below 1 nM and 3.7 nM.
Consider `Cc1ccc([C@H](CC(=O)O)c2ccn3c(C(F)(F)F)nnc3c2C)cc1CN1CC2(CC2)Oc2nc(N(C)CCCO)ccc2S1(=O)=O` (single isomer, unassigned) [Example 108, (*S)-3-(-3-((7′-((3-Hydroxypropyl)(methyl)amino)-1′,1′-dioxidospiro[cyclopropane-1,4′-pyrido[2,3-b][1,4,5]oxathiazepin]-2′(3′H)-yl)methyl)-4-methylphenyl)-3-(8-methyl-3-(trifluoromethyl)-[1,2,4[triazolo[4,3-a]pyridine-7-yl)propanoic Acid], for which, in test [1], the Kd is below 1 nM. In test [2], this compound yielded an EC50 of 406 nM.
For `Cc1ccc(C(CC(=O)O)c2ccn3c(C(F)(F)F)nnc3c2C)nc1CN1CC2(CC2)Oc2ncccc2S1(=O)=O` (racemic) [Example 481, (R/S)-3-(6-((1′,1′-Dioxidospiro[cyclopropane-1,4′-pyrido[2,3-b][1,4,5]oxathiazepin]-2′(3′H)-yl)methyl)-5-methylpyridin-2-yl)-3-(8-methyl-3-(trifluoromethyl)-[1,2,4]triazolo[4,3-a]pyridin-7-yl)propanoic Acid], in that order: below 1 nM and 1290 nM.
Take `Cc1ccc([C@@H](c2ccn3c(C(F)(F)F)nnc3c2C)C(C)(C)C(=O)O)cc1CN1C[C@]2(CCOC2)Oc2ncccc2S1(=O)=O` (single isomer, unassigned) [Example 381, (*S)-3-(3-(((*S)-1′,1′-Dioxido-4,5-dihydro-2H-spiro[furan-3,4′-pyrido[2,3-b][1,4,5]oxathiazepin]-2′(3′H)-yl)methyl)-4-methylphenyl)-2,2-dimethyl-3-(8-methyl-3-(trifluoromethyl)-[1,2,4]triazolo[4,3-a]pyridin-7-yl)propanoic Acid]: the Kd in test [1] is 2820 nM. For the same compound, the EC50 in test [2] was found to be 427 nM.
Taken in the same sequence, the figures for `Cc1cnc2c(c1)S(=O)(=O)N(Cc1cc([C@H](CC(=O)O)c3ccn4c(C(F)(F)F)nnc4c3C)cnc1C)CC1(CC1)O2` (single isomer, unassigned) [Example 565, (*R)-3-(8-Methyl-3-(trifluoromethyl)-[1,2,4]triazolo[4,3-a]pyridin-7-yl)-3-(6-methyl-5-((8′-methyl-1′,1′-dioxidospiro[cyclopropane-1,4′-pyrido[2,3-b][1,4,5]oxathiazepin]-2′(3′H)-yl)methyl)pyridin-3-yl)propanoic Acid] were 59.4 nM and above 20000 nM.
